Consider 5 compounds from patent US20070190172A1, “Enhanced activity biocidal hydrogen peroxide composition” (ASEPTIX TECHNOLOGIES B.V., priority 2006, published 2007).

In experiment [1] the test system is Feline Calici Virus. As to the kind of experiment: EN 14476 virucidal quantitative suspension test. In kind it is cell-based. The method, then:
(§1) In a similar way, fungicidal and virucidal activity was tested using tests dedicated for use with fungi of viruses. For fungi or yeasts, the tests according to European norms EN 1275, EN 1650 or EN 13624 were used. For viruses, the test according to European norm EN 14476 was used.
(§2) A composition comprising 2% H2O2 and 1% Monafax 1214 was prepared and tested against Vacciniavirus, Feline Calici Virus and Adenovirus according to the […] norm:
(§3) EN 14476—Chemical disinfectants and antiseptics—Virucidal quantitative suspension test for chemical disinfectants and antiseptics used in human medicine—Test methods and requirements (phase 2/step 1).

The subject of experiment [2] is Adenovirus. Briefly: EN 14476 virucidal quantitative suspension test. Format: cell-based. How it is done: as §1, §2, §3
In experiment [3] the test system is Staphylococcus aureus. The settings on record: background statement; cited from earlier work.
The subject of experiment [4] is Enterococcus hirae. As to the kind of experiment: EN 1276 bactericidal suspension test. Format: cell-based. The following applies: 1.2% H2O2 + 0.6% surfactant. The text has this:
(§4) Biocidal activity of a composition for use according to the invention is preferably determined by a controlled bactericidal suspension test conform European Norm for chemical disinfectants and antiseptics EN 1276 (EN 1276: Quantitative suspension test for the evaluation of bactericidal activity of chemical disinfectants and antiseptics used in food, industrial, domestic, and institutional areas: test method and requirements). An effective biocidal composition is a composition that provides at least a log 3 reduction after a 1 minute contact time with a Staphylococcus aureus test suspension of 10^8 cfu per ml, preferably at least a log 4 reduction, more preferably at least a log 5 reduction, most preferably at least a log 6 reduction.
(§5) Bactericidal activity of the exemplified compositions was tested using a controlled bactericidal suspension test conform European Norm for chemical disinfectants and antiseptics EN 1276 (EN 1276: Quantitative suspension test for the evaluation of bactericidal activity of chemical disinfectants and antiseptics used in food, industrial, domestic, and institutional areas: test method and requirements). One ml of a test suspension containing about 10^8 cfu of the test microorganism per ml is added to 8 ml of the composition to be tested, and 1 ml milli-Q water is added. In some experiments, a protein load was added to this suspension according to the EN 1276 procedures to simulate unclean practical conditions. To provide for a clean condition 0.3% Bovine Albumin was added and for a dirty condition 3% Bovine Albumin.
(§6) After 1, 2 and 5 minutes contact time, the amount of viable bacteria was determined.
(§7) To simulate unclean practical conditions, a protein load was added according to the EN 1276 procedures to bacterial test suspensions. To provide for a clean condition 0.3% Bovine Albumin was added and for a dirty condition 3% Bovine Albumin. The performance of Monafax 1214 was compared with that of the N,N-Dimethyldecylamine-N-oxide (Barlox 10s of Lonza Ltd.). A H2O2 concentration of 1.2% was used and a 0.6% of the respective surfactants. The solution containing Monafax has a pH of around 2.3 and the solution containing Barlox 10s has a pH of around 5.

For experiment [5], the system named is Lysteria monocytogenes. As to the kind of experiment: EN 1276 bactericidal suspension test. Format: cell-based. The settings on record: 1.2% H2O2 + 0.6% surfactant.
Source text: as §4, §5, §6, §7

For experiment [6], the system named is Bacillus cereus. Briefly: EN 1276 bactericidal suspension test. In kind it is cell-based. The settings on record: 1.2% H2O2 + 0.6% surfactant.
Source text: as §4, §5, §6, §7

Experiment [7] has as its system Candida albicans. Briefly: EN 1276 bactericidal suspension test. In kind it is cell-based. The settings on record: 1.2% H2O2 + 0.6% surfactant.
Source text: as §4, §5, §6, §7

Experiment [8] concerns Staphylococcus aureus. As to the kind of experiment: EN 1276 bactericidal suspension test. In kind it is cell-based. The settings on record: 1.2% H2O2 + 0.6% surfactant.
Source text: as §4, §5, §6

[9] abbreviates: clean condition 0.3% Bovine Albumin, 2 min.
Where [10] appears, read: clean condition 0.3% Bovine Albumin, 5 min.
The mark [11] stands for this setting: dirty condition 3% Bovine Albumin, 2 min.
The mark [12] stands for this setting: dirty condition 3% Bovine Albumin, 5 min.

For the compound `OO` [2% H2O2, hydrogen peroxide], in experiment [1], the “log reduction, 3 minutes” value was “log 0.2” and the “log reduction, 5 minutes” value is “log 0.9”. In experiment [2], the “log reduction, 5 minutes” value is listed as “log 0.6” and the “log reduction, 10 minutes” value is given as “log 0.6”.
As for `OO` [3% H2O2, hydrogen peroxide], in experiment [2], the “log reduction, 5 minutes” value is reported as “log 0.5” and the “log reduction, 10 minutes” value is “log 0.6”.
With `OO` [3% w/w hydrogen peroxide, hydrogen peroxide], the “time to achieve a greater than 6 log reduction in Staphylococcus aureus” value in experiment [3] is listed as 20 minutes.
With `CCCCCCCCCC[N+](C)(C)[O-]` [Barlox 10s (Lonza), N,N-Dimethyldecylamine-N-oxide], the “number of colonies, clean, 2 min” value in experiment [4] (setting [9]) is 8; in experiment [5] (setting [9]), greater than 300; in experiment [6] (setting [9]), greater than 300; in experiment [7] (setting [9]), 300; in experiment [8] (setting [9]), greater than 300. In addition, the “number of colonies, clean, 5 min” value in experiment [4] (setting [10]) is 0; in experiment [5] (setting [10]), greater than 300; in experiment [6] (setting [10]), greater than 300; in experiment [7] (setting [10]) it was 250; in experiment [8] (setting [10]), greater than 300. Moreover, the “number of colonies, dirty, 2 min” value is on record as 6 in experiment [4] (setting [11]); greater than 300 in experiment [5] (setting [11]); greater than 300 in experiment [6] (setting [11]); greater than 300 in experiment [7] (setting [11]); greater than 300 in experiment [8] (setting [11]). Besides, the “number of colonies, dirty, 5 min” value is given as 1 in experiment [4] (setting [12]); greater than 300 in experiment [5] (setting [12]); greater than 300 in experiment [6] (setting [12]); greater than 300 in experiment [7] (setting [12]); greater than 300 in experiment [8] (setting [12]).
For `OO` [hydrogen peroxide], the “time to achieve a greater than log 6 reduction in Staphylococcus aureus” value in experiment [3] is recorded as 20 seconds.
